The assay has as its target T1, Dimer of Gag-Pol polyprotein [489-587] (Human immunodeficiency virus 1, UniProt P12497).
T1 construct: 489-587
Nature of the assay: Protease Inhibition Assay. The following applies: pH 5; 22 °C.

From the text: HIV-1 protease was purified and refolded from E. coli inclusion bodies. […] In the presence of HIV-l protease, the substrate is rapidly cleaved into two parts. The biotinylated amino terminal fragment binds to the avidin beads while the FITC-containing carboxy1 terminal fragment is removed through the membrane. […] The bound fluorescence is obtained by processing on an IDEXX Screen Machine. Determination of Ki values with this assay requires analysis under conditions in which substrate concentration resides substantially below Km and the inhibitor concentrations greatly exceeds the Ki value and the enzyme concentration.

One may read the Ki as the equilibrium dissociation constant of an inhibitor or competing ligand from its target. High values mean lower affinity, low ones higher affinity. Compound `CC(C)C(c1ccccc1)c1c(O)c2c(oc1=O)CCCCCC2` (stereo not given) [5,6,7,8,9,1O-Hexahydro-4-hydroxy-3-(2-methyl-nylpropyl)-W-cycloocta[b]pyran-2-one] displayed an inhibition constant Ki of 22 nM. The value for `CCCCC(c1ccccc1)c1c(O)c2c(oc1=O)CCCCCC2` (stereo not given) [5,6,7,8,9,10-Hexahydroro-4-hydroxy-1-phenylpentyl)-W-cycloocta[blpyran-2-one] was 62 nM. Next, `CC(C)CC(c1ccccc1)c1c(O)c2c(oc1=O)CCCCCC2` (stereo not drawn) [5,6,7,8,9,1O-Hexahydro-4-hydroxy-3-(3-methyl-l-phe-nylbutyl)-W-cycloocta[b]pyran-2-one]: 90 nM; `CCCC(c1ccccc1)c1c(O)c2c(oc1=O)CCCCCC2` (stereo not given) [4-hydroxy-3-(1-phenylbutyl)-2H,5H,6H,7H,8H,9H,10H-cycloocta[b]pyran-2-one]: 29 nM. For `O=c1oc2c(c(O)c1C(c1ccccc1)c1ccccc1)CCCCCC2` [3-(Diphenylmethyl)-5,6,7,8,9,1O-hexahydro-4-hydroxy-W-cycloocta[b]pyran-2-one], the Ki stood at 180 nM.
